Results from patent publication US8420145B2, “Isosorbide derivatives and their use as flavor modifiers, tastants, and taste enhancers” (Senomyx, Inc., priority 2008, dated 2013).
“And” between values parts separate entries of the source, which are not always exact repeats. Equal values may be shown once.

Assays:
un-induced I-17 cells = assay: FLIPR assay on un-induced I-17 cells (no mifepristone, receptor not expressed); assay type: cell-based
Protocol: In order to determine the dependency of hT1R1/hT1R3 for the cell response to different stimuli, selected compounds were subjected to a similar analysis on I-17 cells that had not been induced for receptor expression with mifepristone (designated as un-induced I-17 cells). […] Compounds were presented to un-induced umami cells at 10 μM-or three times the maximum stimulation used in the dose-response analysis.

[1] = Time-intensity testing: panelists rate umami intensity over 70 seconds; assay type: in vivo, human; conditions: for Average Intensity-at-Max (umami intensity): scale 0 to 100
Protocol: Overview: Panelists Evaluate Various Solutions for Umami Intensity Over Time.
General procedure: Samples presented to panelists include various concentrations of MSG and compounds of interest. Samples may contain 0.1% ethanol to assist in dissolving compounds into solution. Samples are three-digit blind coded and served in 20 ml volumes. Samples are presented to panelists in randomized, counterbalanced order. All data is collected using the Compusense five software program. Umami intensity is rated on a scale from 0 to 100 (0=no umami intensity; 100=strong umami intensity). Panelists sip a sample and begin rating umami intensity. Panelists move the mouse on the horizontal scale to correspond to the umami intensity they perceive. Panelists continue rating the intensity for 70 seconds, and then expectorate the sample. The software program records an intensity score for each panelist for each 1 second period during the sample evaluation.
After tasting each sample, panelists sip and swish water in the mouth for a few seconds and expectorate. They may repeat this several times. Panelists wait 30 minutes before tasting the next sample.
Data analysis: Time-intensity curves are created for each of the samples and various parameters of the test are compared statistically.
To create the graphical representation of the sample: For each of the 70 seconds of the evaluation, panelists individual scores are averaged and presented graphically. For example, each panelist's intensity score at time=0 seconds is averaged and plotted. The same calculation is made for each of the 70 seconds to create the time-intensity curve.
To evaluate the Time to Maximum Intensity parameter: A time-intensity curve is created for each panelist. […] The specific time scores for each panelist are averaged. Next, the average scores for the various samples are compared using ANOVA, and multiple comparisons are performed using Tukey's Honestly Significant Difference test at alpha=0.05.

[2] = 12 mM in Low Sodium Buffer pH 7.1, n = 33
[3] = 12 mM in Low Sodium Buffer pH 7.1, n = 36
[4] = 16 mM in Low Sodium Buffer pH 7.1, n = 36
[5] = 2.5 ppm (6.86 uM) in Low Sodium Buffer pH 7.1, n = 36
[6] = 15 ppm (41.62 uM) in Low Sodium Buffer pH 7.1, n = 33

N[C@@H](CCC(=O)O)C(=O)[O-].[Na+] [monosodium glutamate, Monosodium Glutamate]
functional response in the FLIPR assay (un-induced I-17 cells): do not show any functional response | Average Time-to-Max (time to maximum umami intensity) [1, 2]: 15.9 s | Average Time-to-Max (time to maximum umami intensity) [1, 3]: 18.8 s | Average Time-to-Max (time to maximum umami intensity) ([1]; 16 mM in Low Sodium Buffer pH 7.1, n = 33, listed as Sample 2): 17 s and 17.7 s | Average Time-to-Max (time to maximum umami intensity) [1, 4]: 16.3 s | Average Intensity-at-Max (umami intensity) [1, 2]: 45.3 | Average Intensity-at-Max (umami intensity) [1, 3]: 49.8 | Average Intensity-at-Max (umami intensity) ([1]; 16 mM in Low Sodium Buffer pH 7.1, n = 33): 53.8 | Average Intensity-at-Max (umami intensity) [1, 4]: 62.9

O=C(CCCC1CCCCC1)N[C@H]1CO[C@H]2[C@@H]1OC[C@@H]2NC(=O)C1CC1 [Example 29, N-((3S,3αR,6S,6αR)-6-(4cyclohexylbutanamido)hexahydrofuro-[3,2-b]furan-3-yl)cyclopropanecarboxamide]
melting point: 181.5 to 182.5 °C | average time to maximum intensity compared with Sample 4 (12 mM MSG) and Sample 5 (16 mM MSG), Tukey's HSD test ([1]; 2.5 ppm (6.86 uM)): not significantly different | Average Time-to-Max (time to maximum umami intensity) [1, 5]: 18.3 s | average intensity at max compared with Sample 4 (12 mM MSG) or Sample 5 (16 mM MSG), Tukey's HSD test ([1]; 2.5 ppm (6.86 uM), p>0.1): not significantly different | Average Intensity-at-Max (umami intensity) [1, 5]: 57.9

O=C(N[C@H]1CO[C@H]2[C@@H]1OC[C@@H]2n1cc(CC2CCCCC2)nn1)C1CC1 [Example 1, N-((3S,3αR,6S,6αR)-6-(4(cyclohexylmethyl)-1H-1,2,3-triazol-1-yl)-hexahydrofuro[13,2-b]furan-3-yl)cyclopropanecarboxamide]
Average Time-to-Max (time to maximum umami intensity) [1, 6]: 14.9 s | average intensity at maximum compared with Sample 1 (12 mM MSG), Tukey's HSD test ([1]; 15 ppm (41.62 uM), p<0.05): significantly more savory | average intensity at maximum compared with Sample 2 (16 mM MSG), Tukey's HSD test ([1]; 15 ppm (41.62 uM), p>0.1): not significantly different | average time to maximum intensity compared with Sample 2 (16 mM MSG), Tukey's HSD test ([1]; 15 ppm (41.62 uM), p>0.1): not significantly different | Average Intensity-at-Max (umami intensity) [1, 6]: 57
